As a reminder, the MIC is the smallest concentration in the dilution series that meets the test's criterion for growth inhibition. A high value points to weaker potency.

Converted amounts (≈) assume the structure as drawn.

The source of these data is patent EP0537575A1, “Hydrobromide of DC-89 derivative having antitumor activity” (KYOWA HAKKO KOGYO CO., LTD., priority 1991, dated 1993).

In one data set the test system is HeLaS₃ cells. Briefly: Growth inhibition test on HeLaS₃ cells (Neutral Red staining). Conditions: Homo sapiens, HeLa, 72 hours culture, absorbance 550 nm, read-out: HeLaS₃ IC₅₀. The data set is classed as cell-based. As for the experimental part: HeLaS₃ cells suspended in MEM medium containing 10% fetal calf serum and 2 mM glutamine (hereinafter referred to as medium A) to a concentration of 3 × 10⁴ cells/ml were put into wells of a 96-well microtiter plate in an amount of 0.1 ml per well.
After culturing at 37°C overnight in a CO₂-incubator, 0.05 ml of a test sample appropriately diluted with medium A was added to each well.
The cells were further cultured at 37°C for 72 hours in the CO₂-incubator and the culture supernatant was removed. The residue was washed once with phosphate buffered physiological saline (PBS), and 0.1 ml of a medium containing medium A and 0.02% Neutral Red was added to each well, followed by culturing at 37°C for one hour in the CO₂-incubator to stain the cells. After removal of the culture supernatant, the cells were washed once with physiological saline, and the dye was extracted with 0.001N HCl/30% ethanol. Absorbance of the extract at 550 nm was measured with a microplate reader. By comparing the absorbance of the extract of intact cells with those of the cells treated with the test compound at known concentrations, the concentration of the test compound which inhibited growth of the cells by 50% (IC₅₀) was determined.

In data set [1] the test system is Staphylococcus epidermidis S1318. Briefly: Antibacterial activity, agar dilution method. To be noted: pH 7.0. The data set is classed as cell-based. As for the experimental part: (§1) Minimum inhibitory concentrations (MIC) of Compound (I) against various bacteria were determined by the agar dilution method (pH 7.0).
(In general: Agar dilution tests growth on a series of plates holding different concentrations.)

Data set [2] relates to Staphylococcus aureus 209-P. Briefly: Antibacterial activity, agar dilution method. It is filed as cell-based. Conditions: pH 7.0. As for the experimental part:
as §1

For data set [3], the system named is Micrococcus luteus ATCC9341. Briefly: Antibacterial activity, agar dilution method. To be noted: pH 7.0. The data set is classed as cell-based. As for the experimental part: as §1
The test system of data set [4] is Staphylococcus aureus 6538-P. The experiment in a line: Antibacterial activity, agar dilution method. It is filed as cell-based. To be noted: pH 7.0. As for the experimental part:
as §1

Data set [5] has as its system Bacillus subtilis ATCC6633. The experiment in a line: Antibacterial activity, agar dilution method. It is filed as cell-based. To be noted: pH 7.0. As for the experimental part: as §1
Another data set relates to Sarcoma 180 tumor. Briefly: Therapeutic effect against Sarcoma 180 tumor implanted subcutaneously in mice. It is filed as in vivo, ddY-strain mice. To be noted: Dose 0.70 mg/kg, intravenously, one day after implantation; tumor volume seven days after implantation. As for the experimental part:
Five male ddY-strain mice each weighing 18 to 20 g were used for each group as test animals, and 5 × 10⁵ Sarcoma 180 tumor cells were implanted subcutaneously into the animals at the axilla. One day after the implantation, 0.2 ml of physiological saline containing a test compound at the concentration indicated in Table 1 was intravenously administered to each mouse. T/C [T: average tumor volume (mm³) of the group treated with the test compound, C: that of the control group which received an intravenous administration of 0.2 ml of physiological saline] was determined seven days after the implantation.

Data set [6] is described as follows: Stability in solution for preparing a freeze-dried preparation (HPLC). It is filed as physicochemical. Conditions: for Residual Rate: 1 mg/ml in water with 50 mg lactose and 0.5 mg citric acid per ml, 25°C. As for the experimental part:
In 1 ml of distilled water was dissolved 50 mg of lactose and 0.5 mg of citric acid. Compound (I) or Compound (III) was dissolved in the solution to a concentration of 1 mg/ml. The test solution was poured in a vial, and kept in a thermostat at 25°C. The concentration of Compound (I) or Compound (III) in the solution was determined by High Performance Liquid Chromatography (HPLC) with the elapse of time. The concentration of each test compound in the test solution just after the dissolution was defined as 100 %. The residual rate (%) was calculated according to the following equation. [formula]

For the compound `COC(=O)c1c(C)[nH]c2c(OC(=O)N3CCN(C)CC3)cc3c(c12)C(CBr)CN3C(=O)c1cc2cc(OC)c(OC)c(OC)c2[nH]1` (centres unmarked) [Compound (I)], the IC50 with HeLaS₃ cells came out at 31 nM. The MIC was determined as 6.25 µg/mL (≈ 8.95 µM) in data set [1]; 6.25 µg/mL (≈ 8.95 µM) in data set [2]; 25 µg/mL (≈ 35.8 µM) in data set [3]; 6.25 µg/mL (≈ 8.95 µM) in data set [4]; 6.25 µg/mL (≈ 8.95 µM) in data set [5]. For the same compound, in the data set with Sarcoma 180 tumor, the “Sarcoma 180 T/C” value came to 0.095. Also, the “Residual Rate” value in data set [6] (Time 0 hr (defined as 100 %)) is recorded as 100%; in data set [6] (Time 3 hr), 99%; in data set [6] (Time 6 hr), 98%. In addition, the “stability in solution (in words)” value in data set [6] (compared with Compound (III), results of Table 3) was “improved stability in solution”.
